pKi: −log10 of the molar value.
Columns and labels:
[1] = test system: human MC4-R; assay: Agonist activity by cAMP detection in transfected HEK 293 cells; type: cell-based; conditions: conclusion from cAMP results
Procedure: HEK 293 cells, stably transfected with human MC4-R, were used. […] Following incubation, the medium was aspirated and cell layers extracted. The total cAMP accumulation in fixed quantities of cell extract was determined by competitive immunoassay using the cAMP kit.

[2] = test system: Sprague Dawley rats; assay: Induced penile erection by intravenous injection; type: in vivo; conditions: for dose resulting in (equivalent) penile response: intravenous injection in rats; for efficacious dose, efficacy determined by induction of penile erection in 100% of animals: intravenous injection, rats; for % Rats with Penile Erection / Number of Erections/Rat/30 Minutes: intravenous
[3] = test system: Sprague Dawley rats; assay: Induced penile erection by intranasal administration (dosing study); type: in vivo; conditions: for % Rats with Penile Erection / Number of Erections/Rat/30 Minutes: intranasal
[4] = molecular target: MC1-R; conditions: read-out: RELATIVE BINDING (KI) MC1-R; competitive inhibition; B16-F1 melanoma cells as receptor source
Procedure: (§1) Relative binding was determined by competitive inhibition using α-MSH. B16-F1 melanoma cells were used as the source of MC1 receptors; HEK 293 cells, transfected with human melanocortin receptor sequences, were used as the source of MC3, MC4 and MC5 receptors; and Y1 cells were used as the source of MC2 receptors.

[5] = molecular target: MC3-R; conditions: read-out: RELATIVE BINDING (KI) MC3-R; competitive inhibition; transfected HEK 293 cells
Procedure: as §1

[6] = molecular target: MC5-R; conditions: read-out: RELATIVE BINDING (KI) MC5-R; competitive inhibition; transfected HEK 293 cells
Procedure: as §1

[7] = test system: men with psychogenic erectile dysfunction; conditions: subcutaneous, 0.025 to 0.157 mg/kg body weight; cited from earlier work

| Substance | agonist activity to MC4-R [1] | dose resulting in (equivalent) penile response [2] | efficacious dose, efficacy determined by induction of penile erection in 100% of animals [2] | % Rats with Penile Erection ([2]; dose 10.0 µg/kg) [%] | Number of Erections/Rat/30 Minutes ([2]; dose 10.0 µg/kg) | % Rats with Penile Erection ([2]; dose 100.0 µg/kg) [%] | Number of Erections/Rat/30 Minutes ([2]; dose 100.0 µg/kg) | % Rats with Penile Erection ([3]; dose 100 µg/kg) [%] | Number of Erections/Rat/30 Minutes ([3]; dose 100 µg/kg) | % Rats with Penile Erection ([3]; dose 500 µg/kg) [%] | Number of Erections/Rat/30 Minutes ([3]; dose 500 µg/kg) | period in which the penile erection response primarily occurred ([3]; nasal administration, rats, 30 minutes) | pKi [4] | pKi [5] | pKi [6] | treated men developing clinically apparent erections [7] |
| --- | --- | --- | --- | --- | --- | --- | --- | --- | --- | --- | --- | --- | --- | --- | --- | --- |
| Ac-Nle-cyclo(-Asp-His-D-Phe-Arg-Trp-Lys)-OH [Compound 1] | exhibits agonist activity | 2 µg/kg of body weight | ≥ 1 µg/kg of body weight | – | – | – | – | – | – | – | – | – | – | – | – | – |
| Melanotan-II | – | 100 µg/kg of body weight | ≥ 100 µg/kg of body weight | 17 | 0.3 | 75 | 1.0 | 25 | 0.25 | 100 | 1.0 | 2nd and 3rd ten-minute period | 9.92 | 7.63 | 7.16 | 8 of 10 |

From EP1593384A2, “Compositions for treatment of sexual dysfunction” (Palatin Technologies, Inc., priority 1999, dated 2005)
